These are literature values, as cited in patent publication US20220218792A1, “COMPOSITIONS TO PROMOTE THE HEALING OF SKIN ULCERS AND WOUNDS” (priority 2014, published 2022).

Assay in series [1]: not given
The source holds these as a separate data set.

The conditions of series [2]: for gastric tolerability: oral.
Series [3] concerns polymorphonuclear leukocytes.
For series [4], the system named is Peptostreptococcus (including Peptoniphilus, Finegoldia and Anaerococcus) and Fusobacterium. To be noted: anaerobic genera.
Series [5] concerns Staphylococcus, Streptococcus, Neisseria, Escherichia, Proteus (indole-negative), Serratia, Salmonella, Shigella, Pseudomonas, Haemophilus, Vibrio. The note with it: aerobic genera.
Series [6] deals with strains of organisms from the susceptible genera.
For series [7], the system named is indole-positive Proteus spp., Klebsiella and Enterobacter spp.
For series [8] the following is noted: aqueous media at physiological pH.
The subject of series [9] is chronic wounds and ulcers. To be noted: topically applied; deep partial-thickness burns, chronic leg ulcers and leprosy ulcers.
Series [10] relates to wounds infected with Escherichia coli. The note with it: topically applied, rats.

Regarding `C[C@@H]1O[C@@H]1P(=O)(O)O` [Fosfomycin calcium monohydrate], the solubility in water entry is “sparingly soluble”. The “pH of 0.4% solution” value in series [1] (0.4% solution) is reported as 8.1-9.6. Also, in series [2], the gastric tolerability entry is “less irritating to the stomach”.
In the case of `C[C@@H]1O[C@@H]1P(=O)(O)O` [Fosfomycin disodium], the solubility in water entry is “highly soluble”. For the same compound, the “pH of 5% solution” value in series [1] was 9.0-10.5. Further, the gastric tolerability result in series [2] is “irritant to the stomach”.
For the compound `C[C@@H]1O[C@@H]1P(=O)(O)O.NC(CO)(CO)CO` [Fosfomycin trometamol], the solubility in water entry is recorded as “highly soluble”. For the same compound, in series [1], the “pH of 5% solution” value is given as 3.5-5.5. Besides, the gastric tolerability result in [2] was “well tolerated”.
Regarding `C[C@@H]1O[C@@H]1P(=O)(O)O` [fosfomycin, [(2R,3S)-3-methyloxiran-2-yl]phosphonic acid], the “concentration in polymorphonuclear leukocytes relative to extracellular fluid” value in series [3] was “twice”. Moreover, the bactericidal activity result in [4] is listed as “active”; in series [5], “active”; in series [7] it was “less active”. The “strains showing synergistic effect” value in [6] (early studies, various antibiotic combinations) is 70-100 % of tested strains. Also, the synergy rates in series [6] (subsequent more extensive studies) was 36-74%. Moreover, the “toxicity to mammalian cells and organs” value in series [2] (intravenous doses of up to 0.5 g/kg/day in human patients) is on record as “remarkably non-toxic”. For the same compound, the eosinophilia in [2] (patients) was 0.2%. Also, the “transient rashes (allergy)” value in series [2] (patients) is 0.3 % of cases. Besides, the “transiently raised liver enzymes” value in series [2] (patients) is listed as 0.3 % of cases. In addition, the “stability in aqueous media” value in series [8] is “unstable”.
As to “GM-CSF: monomeric glycoprotein of 127 amino-acid residues, colony-stimulating factor (SEQ ID NO: 2)”, the “healing of wounds and ulcers” value in series [9] is reported as “beneficial”. Also, in [10], the bacterial counts result is on record as “reduced bacterial counts” and the wound closure result is recorded as “accelerated wound closure”.
